Results from ChEMBL document CHEMBL1201862, “PubChem BioAssay data set” (2004).
Active and inactive are the calls of the source.

What was measured:
[1] = target: T1, High affinity choline transporter 1 (Homo sapiens, UniProt Q9GZV3); assay: CHT inhibitors, dose response, cell-based, 10-point CRC, membrane potential dye (AID 588401); format: functional;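 note: membrane potential dye fluorescence of choline-evoked depolarization via CHT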
T1 sequence (Q9GZV3 whole entry): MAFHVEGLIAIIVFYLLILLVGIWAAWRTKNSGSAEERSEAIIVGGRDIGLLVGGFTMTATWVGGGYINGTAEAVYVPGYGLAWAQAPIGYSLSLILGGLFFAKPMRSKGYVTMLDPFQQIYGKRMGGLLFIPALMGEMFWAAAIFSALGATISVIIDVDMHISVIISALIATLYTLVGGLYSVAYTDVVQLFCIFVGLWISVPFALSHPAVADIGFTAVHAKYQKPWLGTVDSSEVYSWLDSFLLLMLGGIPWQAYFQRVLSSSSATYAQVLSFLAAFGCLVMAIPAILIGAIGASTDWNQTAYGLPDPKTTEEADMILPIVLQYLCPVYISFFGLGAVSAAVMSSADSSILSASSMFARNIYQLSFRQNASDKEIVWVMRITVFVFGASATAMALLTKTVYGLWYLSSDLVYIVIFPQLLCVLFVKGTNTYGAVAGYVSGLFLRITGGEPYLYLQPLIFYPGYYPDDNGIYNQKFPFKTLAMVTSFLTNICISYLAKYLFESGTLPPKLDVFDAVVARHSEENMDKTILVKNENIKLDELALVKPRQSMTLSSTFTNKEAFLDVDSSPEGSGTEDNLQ

[2] = target: T1, High affinity choline transporter 1; assay: CHT inhibitors, dose response, cell-based, 5-point CRC, membrane potential dye (AID 504840); format: functional
HEK293 = assay: inhibitors of LMP1-driven NF-kB reporter, dose response, cell-based, HEK293, luciferase, cherry-pick (AID 588343); format: functional; conditions: Homo sapiens
BJ [3] = assay: cells; format: functional, cell-based; conditions: Homo sapiens
cells [4] = format: functional, cell-based
[5] = C. albicans growth with fluconazole, confirmation, fluorescence, retest (AID 2467); format: functional, cell-based
cells [6] = format: functional, cell-based; remark: listed apart in the source
[7] = cytotoxicity toward NIH3T3 fibroblasts, dose response, counter-screen, cell-based, ATP luminescence, mouse fibroblasts (AID 2010); format: functional;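 note: cells exposed to compound for about 90 hours before reading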
[8] = target: Latent membrane protein 1 (Human herpesvirus 4 (strain B95-8), UniProt P03230); assay: TES1-eGFP NF-kB reporter inhibition versus Tet-On dsRED, dose response, selectivity assay for LMP1 NF-kB inhibitor project, imaging, HEK293T, dual-color eGFP/dsRED, cherry-picks (AID 588398); format: functional, cell-based
BJ [9] = assay: cytotoxicity toward BJ-TERT fibroblasts, dose response, cell-based, RAS-independent, luminescence (AID 1933); format: functional; conditions: Homo sapiens
[10] = inhibitors of intracellular T. cruzi replication, confirmation, NIH3T3 host cells, beta-gal luminescence (AID 2044); format: functional, cell-based;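 note: intracellular parasites grown in NIH/3T3 mouse fibroblasts as host cells; luminescent beta-galactosidase reporter signal from transgenic T. cruzi replicating inside host cells; inhibitors lower the luminescence signal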
[11] = target: T2, Serine/threonine-protein phosphatase (Candida dubliniensis (strain CD36 / CBS 7987 / NCPF 3949 / NRRLY-17841) (Yeast), UniProt B9W6M3); assay: calcineurin pathway inhibitors in yeast reporter, dose response, S. cerevisiae, CDRE-lacZ, luminescence, secondary (AID 2388); format: functional, cell-based;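 note: yeast reporter cells carrying a calcineurin-responsive lacZ construct stimulated with calcium chloride; luminescent beta-galactosidase reporter signal in whole cells rather than isolated phosphatase activity; potency for inhibition where a drop in reporter signal means calcineurin blockade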
T2 sequence (B9W6M3 whole entry): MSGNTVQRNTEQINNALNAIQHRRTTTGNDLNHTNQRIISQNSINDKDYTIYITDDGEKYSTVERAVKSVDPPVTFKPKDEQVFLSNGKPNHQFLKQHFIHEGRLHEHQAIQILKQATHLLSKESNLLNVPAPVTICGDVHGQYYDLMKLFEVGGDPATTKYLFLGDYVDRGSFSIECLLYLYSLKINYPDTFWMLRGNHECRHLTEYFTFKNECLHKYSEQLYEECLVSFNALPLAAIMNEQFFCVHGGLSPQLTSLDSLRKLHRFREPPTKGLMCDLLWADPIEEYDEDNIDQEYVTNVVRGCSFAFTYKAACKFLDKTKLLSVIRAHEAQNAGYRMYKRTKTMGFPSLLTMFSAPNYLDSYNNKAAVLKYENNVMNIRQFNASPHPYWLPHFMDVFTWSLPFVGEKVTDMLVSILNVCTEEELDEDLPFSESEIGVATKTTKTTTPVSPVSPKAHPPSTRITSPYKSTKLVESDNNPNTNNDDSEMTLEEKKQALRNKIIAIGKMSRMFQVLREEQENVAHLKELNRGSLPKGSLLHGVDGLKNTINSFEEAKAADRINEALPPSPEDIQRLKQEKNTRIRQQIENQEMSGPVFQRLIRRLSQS

[12] = Luminescence-based counterscreen assay for KLF5 inhibitors: dose response cell-based high throughput screening assay to identify cytotoxic compounds using the IEC-6 intestinal epithelial cell line. [Related pubchem assays: 1700 (Primary screen.), 1834 (Confirmation screen.), 1858 (Summary AID.), 1905 (Counterscreen.)]; format: functional
BJ [13] = assay: cytotoxicity toward BJ-TERT-LT-ST fibroblasts, dose response, cell-based, RAS-independent, luminescence (AID 1935); format: functional; conditions: Homo sapiens;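 note: BJ fibroblasts immortalized with TERT plus LT and ST oncogenes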
[14] = target: ATP-dependent molecular chaperone HSP82 (Candida albicans (strain WO-1) (Yeast), UniProt C4YTQ8); assay: loss of DOC-induced GRE-beta-galactosidase reporter signal, dose response, Hsp90 inhibitor project, S. cerevisiae, luminescence (AID 2400); format: functional, cell-based;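 note: beta-galactosidase luminescence from glucocorticoid response element reporter as proxy for Hsp90 function; inhibitor potency where signal loss means Hsp90 inhibition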
[15] = cytotoxicity toward DRD oncogenic fibroblasts, dose response, cell-based, non-viral oncogenic, luminescence (AID 1934); format: functional; conditions: Homo sapiens
[16] = NIH-3T3 fibroblast cytotoxicity, dose response, cytotoxicity control, cell-based, fluorescence, Alamar Blue, secondary assay (AID 2327); format: functional;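 note: NIH-3T3 mouse fibroblasts cultured with fluconazole at 8 µg/mL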
INS1 [17] = assay: protection from cytokine-driven beta-cell apoptosis, dose response, JC-1 fluorescence, INS-1E, dry powder, set 2 (AID 488867); format: functional, cell-based; conditions: Rattus norvegicus
INS1 [18] = assay: inhibitors of cytokine-induced nitrite release, dose response, cell-based, Griess absorbance, INS-1E, dry powder, set 2 (AID 488868); format: functional; conditions: Rattus norvegicus
INS1 [19] = assay: protection from cytokine-induced mitochondrial depolarization, dose response, cell-based, INS-1E, JC-1 fluorescence ratio, dry powder (AID 488931); format: functional; conditions: Rattus norvegicus
INS1 [20] = assay: protection of INS-1E cells from cytokine death, dose response, ATP luminescence, dry powder (AID 488844); format: functional, cell-based; conditions: Rattus norvegicus
INS1 [21] = assay: inhibitors of cytokine-induced nitrite release, dose response, cell-based, Griess absorbance, INS-1E, dry powder (AID 488866); format: functional; conditions: Rattus norvegicus
[22] = target: T3, DNA dC->dU-editing enzyme APOBEC-3G (Homo sapiens, UniProt Q9HC16); format: functional;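 note: Dose-response counterscreen measuring inhibition of APOBEC3G DNA deaminase activity, run while confirming APOBEC3A inhibitors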
[23] = target: Polyadenylate-binding protein 1 (Homo sapiens, UniProt P11940); assay: PABP poly(A) RNA binding inhibitors, primary screen, biochemical, fluorescence polarization, uHTS (AID 2014)
[24] = target: T4, DNA dC->dU-editing enzyme APOBEC-3A (Homo sapiens, UniProt P31941); assay: SAR analysis of small molecule inhibitors of APOBEC3A DNA Deaminase via a fluorescence-based single-stranded DNA deaminase assay.; format: functional; conditions: read-out: IC50_Mean
[25] = target: T4, DNA dC->dU-editing enzyme APOBEC-3A; assay: Dose Response confirmation of small molecule APOBEC3A DNA Deaminase Inhibitors via a fluorescence-based single-stranded DNA deaminase assay. [Related pubchem assays (depositor defined):AID493011, AID493024]; format: functional
[26] = target: Eukaryotic translation initiation factor 4H (Homo sapiens, UniProt Q15056); assay: human eIF4H binding inhibitors, primary screen, translation initiation inhibitor project, biochemical, uHTS, fluorescence polarization (AID 2012)
[27] = target: T3, DNA dC->dU-editing enzyme APOBEC-3G; assay: APOBEC3G deaminase inhibitors, SAR follow-up, biochemical, fluorescence, single-stranded DNA substrate (AID 602136); format: functional; conditions: read-out: IC50_Mean
[28] = target: Casein kinase II subunit alpha (Homo sapiens, UniProt P68400); format: functional
[29] = target: Dual specificity protein kinase CLK4 (Homo sapiens, UniProt Q9HAZ1); format: functional
[30] = target: Serine/threonine-protein kinase Nek4 (Homo sapiens, UniProt P51957); format: functional
[31] = target: Glycogen synthase kinase-3 beta (Homo sapiens, UniProt P49841); format: functional;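 note: value comes from a broad kinome profiling panel, with GSK3B as the panel member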
[32] = target: Interleukin-1 receptor-associated kinase 4 (Homo sapiens, UniProt Q9NWZ3); format: functional
[33] = target: Sphingosine 1-phosphate receptor 4 (Homo sapiens, UniProt O95977); assay: Late-stage fluorescence-based dose-response cell-based counterscreen assay to identify agonists of the Sphingosine 1-Phosphate Receptor 3 (S1P3): Sphingosine 1-Phosphate Receptor 4 (S1P4) agonist assay.; format: functional
[34] = target: Sphingosine 1-phosphate receptor 2 (Homo sapiens, UniProt O95136); assay: Late-stage fluorescence-based dose-response cell-based counterscreen assay to identify agonists of the Sphingosine 1-Phosphate Receptor 3 (S1P3): Sphingosine 1-Phosphate Receptor 2 (S1P2) agonist assay.; format: functional
[35] = target: Serine/threonine-protein kinase D3 (Homo sapiens, UniProt O94806); format: functional;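 note: determined within a kinase panel screen, with PRKCN as the panel member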
[36] = target: Serine/threonine-protein kinase D2 (Homo sapiens, UniProt Q9BZL6); format: functional;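 note: measured against PRKD2 as one member of a kinome-wide kinase profiling panel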
[37] = target: Rho-associated protein kinase 1 (Homo sapiens, UniProt Q13464); format: functional;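 note: measured within a broad kinome-wide panel profiling many kinases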
[38] = target: Macrophage colony-stimulating factor 1 receptor (Homo sapiens, UniProt P07333); format: functional;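 note: value comes from the Navigating the Kinome screening panel, CSF1R member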
[39] = target: Ribosomal protein S6 kinase alpha-3 (Homo sapiens, UniProt P51812); format: functional;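 note: measured within a kinome-wide profiling panel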
[40] = target: Apoptotic protease-activating factor 1 (Homo sapiens, UniProt O14727); assay: SAR analysis of small molecule Activators of Apaf-1 in a Fluorescent assay - set 2.; format: functional; conditions: read-out: EC50_Mean
[41] = SAR analysis of small molecule activators of Apaf-1 using a LZ-Caspase-9/Caspase-3 Fluorescent Selectivity assay - Set 2.; format: functional; conditions: read-out: EC50_Mean
[42] = target: Dual specificity protein kinase CLK2 (Homo sapiens, UniProt P49760); format: functional
[43] = target: Dual specificity tyrosine-phosphorylation-regulated kinase 1A (Homo sapiens, UniProt Q13627); format: functional;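 note: measured against DYRK1A as one member of a broad kinome profiling panel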

T4 sequence (P31941 whole entry): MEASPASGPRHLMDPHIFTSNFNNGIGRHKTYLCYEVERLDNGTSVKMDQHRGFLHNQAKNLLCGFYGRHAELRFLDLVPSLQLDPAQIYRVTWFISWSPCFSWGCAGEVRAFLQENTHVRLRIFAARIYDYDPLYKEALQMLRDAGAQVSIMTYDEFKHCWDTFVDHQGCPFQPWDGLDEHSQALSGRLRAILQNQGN
Chain of Dual specificity protein kinase CLK4 (Q9HAZ1 whole entry): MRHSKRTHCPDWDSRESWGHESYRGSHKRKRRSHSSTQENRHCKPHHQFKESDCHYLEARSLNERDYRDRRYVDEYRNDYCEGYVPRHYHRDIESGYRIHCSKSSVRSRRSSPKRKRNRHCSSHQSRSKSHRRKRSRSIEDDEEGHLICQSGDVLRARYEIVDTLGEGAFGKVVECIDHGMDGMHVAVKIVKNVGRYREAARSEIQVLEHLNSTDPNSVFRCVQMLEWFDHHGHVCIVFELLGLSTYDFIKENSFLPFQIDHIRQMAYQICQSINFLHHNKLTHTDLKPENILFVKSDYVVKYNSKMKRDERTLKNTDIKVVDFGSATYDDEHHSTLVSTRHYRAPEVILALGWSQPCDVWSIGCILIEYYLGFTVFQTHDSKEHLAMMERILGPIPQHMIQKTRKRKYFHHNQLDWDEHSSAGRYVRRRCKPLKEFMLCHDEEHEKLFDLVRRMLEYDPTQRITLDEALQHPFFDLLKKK
T3 sequence (Q9HC16 whole entry): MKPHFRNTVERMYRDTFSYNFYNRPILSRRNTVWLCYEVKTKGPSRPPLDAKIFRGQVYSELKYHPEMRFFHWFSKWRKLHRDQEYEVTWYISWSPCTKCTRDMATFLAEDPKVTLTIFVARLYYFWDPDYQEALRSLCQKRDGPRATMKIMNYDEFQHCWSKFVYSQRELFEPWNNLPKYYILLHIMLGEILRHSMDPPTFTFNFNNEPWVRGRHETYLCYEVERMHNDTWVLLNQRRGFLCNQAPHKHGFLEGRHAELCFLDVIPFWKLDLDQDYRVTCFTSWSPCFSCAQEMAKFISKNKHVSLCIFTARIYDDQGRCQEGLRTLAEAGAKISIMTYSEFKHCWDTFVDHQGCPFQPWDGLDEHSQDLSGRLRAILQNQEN
Chain of Interleukin-1 receptor-associated kinase 4 (Q9NWZ3 whole entry): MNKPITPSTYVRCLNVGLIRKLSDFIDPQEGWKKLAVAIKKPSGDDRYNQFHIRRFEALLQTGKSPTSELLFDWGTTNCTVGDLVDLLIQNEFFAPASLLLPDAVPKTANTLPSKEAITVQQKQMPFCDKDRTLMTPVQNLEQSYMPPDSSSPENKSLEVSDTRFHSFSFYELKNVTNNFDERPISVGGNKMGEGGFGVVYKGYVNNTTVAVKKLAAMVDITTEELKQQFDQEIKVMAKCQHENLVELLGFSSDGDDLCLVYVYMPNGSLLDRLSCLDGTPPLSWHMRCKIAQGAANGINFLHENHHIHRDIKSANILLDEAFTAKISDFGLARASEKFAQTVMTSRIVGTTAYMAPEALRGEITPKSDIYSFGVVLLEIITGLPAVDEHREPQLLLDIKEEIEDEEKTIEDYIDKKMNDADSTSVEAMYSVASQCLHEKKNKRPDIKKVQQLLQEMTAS
Chain of Apoptotic protease-activating factor 1 (O14727 whole entry): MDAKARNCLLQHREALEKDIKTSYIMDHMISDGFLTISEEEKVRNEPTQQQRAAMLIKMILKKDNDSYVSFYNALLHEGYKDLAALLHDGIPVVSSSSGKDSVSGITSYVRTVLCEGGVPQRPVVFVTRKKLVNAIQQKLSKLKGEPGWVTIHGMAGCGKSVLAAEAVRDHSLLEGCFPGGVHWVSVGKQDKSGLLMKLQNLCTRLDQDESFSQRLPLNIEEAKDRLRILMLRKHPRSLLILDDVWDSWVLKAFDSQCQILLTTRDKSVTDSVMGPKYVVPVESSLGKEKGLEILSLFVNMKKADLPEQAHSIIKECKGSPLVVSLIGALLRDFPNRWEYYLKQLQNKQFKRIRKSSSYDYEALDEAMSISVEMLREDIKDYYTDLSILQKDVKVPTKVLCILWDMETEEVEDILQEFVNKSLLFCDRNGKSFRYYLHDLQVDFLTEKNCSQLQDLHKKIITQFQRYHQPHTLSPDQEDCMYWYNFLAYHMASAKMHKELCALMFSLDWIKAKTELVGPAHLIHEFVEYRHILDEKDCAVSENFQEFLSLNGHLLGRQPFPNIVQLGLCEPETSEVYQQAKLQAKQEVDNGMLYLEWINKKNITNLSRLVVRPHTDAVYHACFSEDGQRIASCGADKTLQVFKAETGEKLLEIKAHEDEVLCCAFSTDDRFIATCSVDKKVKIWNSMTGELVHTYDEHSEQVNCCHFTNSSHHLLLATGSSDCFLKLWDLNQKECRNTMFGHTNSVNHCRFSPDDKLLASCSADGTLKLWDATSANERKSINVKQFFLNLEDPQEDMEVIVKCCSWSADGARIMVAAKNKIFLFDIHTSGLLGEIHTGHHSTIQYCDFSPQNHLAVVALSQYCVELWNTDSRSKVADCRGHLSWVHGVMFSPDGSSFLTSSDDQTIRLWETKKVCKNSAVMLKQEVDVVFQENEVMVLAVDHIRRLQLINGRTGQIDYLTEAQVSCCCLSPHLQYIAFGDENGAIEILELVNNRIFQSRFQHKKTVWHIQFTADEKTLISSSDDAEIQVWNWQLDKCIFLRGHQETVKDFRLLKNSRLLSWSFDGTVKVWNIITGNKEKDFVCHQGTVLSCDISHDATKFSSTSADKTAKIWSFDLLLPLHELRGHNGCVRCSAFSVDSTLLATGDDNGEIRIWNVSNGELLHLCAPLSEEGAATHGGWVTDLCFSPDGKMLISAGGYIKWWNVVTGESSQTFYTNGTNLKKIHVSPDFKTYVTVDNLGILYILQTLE
Chain of Dual specificity protein kinase CLK2 (P49760 whole entry): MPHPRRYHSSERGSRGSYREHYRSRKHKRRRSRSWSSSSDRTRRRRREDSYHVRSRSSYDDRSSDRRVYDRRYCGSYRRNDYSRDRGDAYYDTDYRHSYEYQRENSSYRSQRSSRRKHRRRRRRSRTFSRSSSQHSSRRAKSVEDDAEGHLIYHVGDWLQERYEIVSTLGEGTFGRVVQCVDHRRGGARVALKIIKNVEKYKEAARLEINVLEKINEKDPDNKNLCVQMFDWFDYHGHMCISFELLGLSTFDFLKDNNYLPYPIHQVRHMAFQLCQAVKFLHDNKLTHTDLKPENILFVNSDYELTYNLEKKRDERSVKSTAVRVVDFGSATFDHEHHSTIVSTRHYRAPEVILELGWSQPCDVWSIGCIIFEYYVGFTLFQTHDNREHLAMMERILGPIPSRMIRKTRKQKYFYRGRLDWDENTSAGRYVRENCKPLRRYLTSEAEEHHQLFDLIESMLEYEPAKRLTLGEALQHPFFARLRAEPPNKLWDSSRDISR
Chain of Serine/threonine-protein kinase Nek4 (P51957 whole entry): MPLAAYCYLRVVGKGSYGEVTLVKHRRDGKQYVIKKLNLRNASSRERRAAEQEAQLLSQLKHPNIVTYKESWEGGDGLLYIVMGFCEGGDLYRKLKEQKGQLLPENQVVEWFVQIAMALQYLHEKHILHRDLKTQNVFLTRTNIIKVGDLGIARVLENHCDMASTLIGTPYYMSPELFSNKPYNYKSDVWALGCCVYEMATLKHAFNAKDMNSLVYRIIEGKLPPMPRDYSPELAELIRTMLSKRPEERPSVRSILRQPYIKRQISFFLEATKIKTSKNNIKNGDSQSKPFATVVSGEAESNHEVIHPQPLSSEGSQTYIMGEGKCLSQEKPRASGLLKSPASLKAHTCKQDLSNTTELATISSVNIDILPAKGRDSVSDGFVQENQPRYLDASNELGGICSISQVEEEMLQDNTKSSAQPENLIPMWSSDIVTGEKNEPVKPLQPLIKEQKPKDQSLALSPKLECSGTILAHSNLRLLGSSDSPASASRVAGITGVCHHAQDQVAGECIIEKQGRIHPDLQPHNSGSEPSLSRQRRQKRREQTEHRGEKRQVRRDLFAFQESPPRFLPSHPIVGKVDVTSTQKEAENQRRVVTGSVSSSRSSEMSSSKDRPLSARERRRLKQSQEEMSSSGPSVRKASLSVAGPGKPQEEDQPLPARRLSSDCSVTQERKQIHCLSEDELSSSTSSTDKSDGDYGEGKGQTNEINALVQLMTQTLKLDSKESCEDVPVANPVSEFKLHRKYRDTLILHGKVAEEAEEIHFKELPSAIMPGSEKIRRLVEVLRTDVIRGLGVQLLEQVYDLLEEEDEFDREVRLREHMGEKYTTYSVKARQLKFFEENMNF
Chain of Polyadenylate-binding protein 1 (P11940 whole entry): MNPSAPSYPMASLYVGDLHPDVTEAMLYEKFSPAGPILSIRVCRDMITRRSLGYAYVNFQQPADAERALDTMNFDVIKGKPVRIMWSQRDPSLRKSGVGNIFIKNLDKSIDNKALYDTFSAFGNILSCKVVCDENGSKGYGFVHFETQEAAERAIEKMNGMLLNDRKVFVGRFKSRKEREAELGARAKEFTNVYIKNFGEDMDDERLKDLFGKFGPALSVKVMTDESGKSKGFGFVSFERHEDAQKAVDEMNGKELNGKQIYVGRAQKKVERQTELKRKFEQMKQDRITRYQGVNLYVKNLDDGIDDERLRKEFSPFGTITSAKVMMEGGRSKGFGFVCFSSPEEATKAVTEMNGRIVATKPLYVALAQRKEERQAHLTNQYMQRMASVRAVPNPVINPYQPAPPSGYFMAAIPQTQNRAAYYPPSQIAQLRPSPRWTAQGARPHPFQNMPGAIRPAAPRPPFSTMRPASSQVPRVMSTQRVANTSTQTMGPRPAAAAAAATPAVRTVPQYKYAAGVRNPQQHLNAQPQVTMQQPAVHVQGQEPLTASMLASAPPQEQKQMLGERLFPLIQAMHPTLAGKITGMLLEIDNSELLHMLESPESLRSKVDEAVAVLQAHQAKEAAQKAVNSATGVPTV

Nc1ncnc2c1ncn2C1OC(C(=O)NC2CC2)C(O)C1O (stereo not given)
IC50 [1]: 0.00447 µM (active) | IC50 [2]: 0.0241 nM (inconclusive)

Cc1ccc(C(=O)N/N=C/c2c(O)ccc3ccccc23)cn1
AC50 (HEK293): 5.41 µM (active) | EC50 (BJ [3]): 10.4 µM (inconclusive) | EC50 (cells [4]): 6.93 µM (active) | EC50 [5]: 0.803 µM (active) | EC50 (cells [6]): > 350 µM (not active) | EC50 [7]: 10.9 µM (active) | AC50 [8]: 9.88 µM (active) | EC50 (BJ [9]): 1 µM (active) | EC50 [10]: 1.59 µM (active) | EC50 [11]: > 180 µM (inactive) | IC50 [12]: 3.96 µM (active) | EC50 (BJ [13]): 13.1 µM (active) | EC50 [14]: > 150 µM (inactive) | EC50 [15]: 2.72 µM (active) | EC50 [16]: > 150 µM (inactive)

C[C@@H]1CN([C@@H](C)CO)C(=O)c2cccc(NC(=O)Nc3cccc4ccccc34)c2O[C@H]1CN(C)S(=O)(=O)c1ccc(Cl)cc1
AC50 (INS1 [17]): 90.1 µM (active) | AC50 (INS1 [18]): 44.2 µM (active) | AC50 (INS1 [19]): 41.3 µM (active) | AC50 (INS1 [20]): 31.1 µM (active) | AC50 (INS1 [21]): > 195 µM (inactive)

CC1(C)Oc2ccc3ccc(=O)oc3c2C(/C=N/O)=C1Cl
IC50 [22]: 6.8 µM (active) | IC50 [23]: 10.3 µM (active) | IC50 [24]: 43 µM (inactive) | IC50 [25]: 4.97 µM (active) | IC50 [26]: > 100 µM (inactive) | IC50 [27]: > 99 µM (inactive)

C(=Cc1cncc(OCCc2c[nH]c3ccccc23)c1)c1ccncc1
Ki [28]: 3.16 µM (active) | Ki [29]: 1 µM (active) | Ki [30]: 6.31 µM (active) | Ki [31]: 5.01 µM (active) | Ki [32]: > 10 µM (inactive)

O=C(c1coc(C2CC2)n1)N(C1CCCCC1)C1CCCCC1
EC50 [33]: > 50 µM (inactive) | EC50 [34]: > 50 µM (inactive)

CCNC(=O)c1[nH]nc(-c2cc(Cl)c(O)cc2O)c1-c1ccc(OC)cc1
Ki [35]: 1.58 µM (active) | Ki [36]: 1.58 µM (active) | Ki [37]: 3.98 µM (active) | Ki [38]: 1.26 µM (active) | Ki [39]: 3.16 µM (active)

Cc1nn(CC(C)C(=O)O)c(C)c1C (stereo not given)
EC50 [40]: 63.6 µM (active) | EC50 [41]: > 100 µM (inactive)

CCc1cccc2c1n(CC)c(=N)n2CC(=O)c1ccc(Cl)cc1
Ki [42]: 1.58 µM (active) | Ki [43]: 2.51 µM (active) | Ki [29]: 2.51 µM (active)
